Experimental data published in patent US20240247015A1, “PHOSPHORUS DERIVATIVES AS NOVEL SOS1 INHIBITORS” (BAYER AKTIENGESELLSCHAFT, priority 2021, published 2024).

What follows are molecules tested against interaction of human SOS1 (SOS1) with human K-RasG12C (Homo sapiens (Human), UniProt Q07889) (assay: Biochemical assay: hK-RasG12C interaction assay with hSOS1 (HTRF)). Conditions: GST-hK-RasG12C with His-hSOS1, 60 min incubation at 20° C., mean, read-out: K-RasG12C - SOS interaction assay IC50 (mean).
Type: binding
Method: Biochemical Assay: hK-RasG12C Interaction Assay with hSOS1 This assay quantifies the equilibrium interaction of human SOS1 (SOS1) with human K-Ras^G12^C (K-RasG12C). Detection of the interaction is achieved by measuring homogenous time-resolved fluorescence resonance energy transfer (HTRF) from antiGST-Europium (FRET donor) bound to GST-K-RasG12C to anti-6His-XL665 bound to His-tagged hSOS1 (FRET-acceptor). The assay buffer containes 5 mM HEPES pH 7.4 (Applichem), 150 mM NaCl (Sigma), […] (Promega), 1 mM DTT (Thermofisher), 0.05% BSA Fraction V, pH 7.0, (ICN Biomedicals), 0.0025% (v/v) Igepal (Sigma) and 100 mM KF (FLUKA). The expression and purification of N-terminally GST-tagged human K-RasG12C (termed GST-hK-RasG12C) and N-terminally His-tagged human SOS1 (termed His10-hSOS1) is described in WO 2019/201848, page 220 line 12-34 and page 222, line 13-25 (expression) and page 222, line 26 to page 223, line 17 (purification). Concentrations of protein batches used are optimized to be within the linear range of the HTRF signal. A Ras working solution is prepared in assay buffer containing typically 10 nM GST-hK-RasG12C and 2 nM antiGST-Eu(K) (Cisbio, France). A SOS1 working solution is prepared in assay buffer containing typically 20 nM His-hSOS1 and 10 nM anti-6His-XL665 (Cisbio, France). An inhibitor control solution is prepared in assay buffer containing nM anti-6His-XL665 without SOS1. Fifty nl of a 100-fold concentrated solution of the test compound in DMSO are transferred into a black microtiter test plate (384 or 1536, Greiner Bio-One, Germany). For this, either a Hummingbird liquid handler (Digilab, MA, USA) or an Echo acoustic system (Labcyte, CA, USA) is used. All steps of the assay are performed at 20° C. A volume of 2.5 μl of the Ras working solution is added to all wells of the test plate using a Multidrop dispenser (Thermo Labsystems). After 2 min preincubation, 2.5 μl of the SOS1 working solution are added to all wells except for those wells at the side of the test plate that are subsequently filled with 2.5 μl of the inhibitor control solution. After 60 min incubation the fluorescence is measured with a Pherastar (BMG, Germany) using the HTRF module (excitation 337 nm, emission 1: 620 nm, emission 2: 665 nm). The ratiometric data (emission 2 divided by emission 1) are normalized using the controls (DMSO=0% inhibition, inhibition control wells with inhibitor control solution=100% inhibition). Compounds are tested in duplicates at up to 11 concentrations (for 20 μM, 5,7 μM, 1,6 μM, 0.47 μM, 0.13 μM, 38 nM, 11 nM, 3.1 nM, 0.89 nM, 0.25 nM and 0.073 nM). IC50 values are calculated by 4-Parameter fitting using a commercial software package (Genedata Screener, Switzerland).

Chain of interaction of human SOS1 (SOS1) with human K-RasG12C (Q07889 564-1049 limits assumed): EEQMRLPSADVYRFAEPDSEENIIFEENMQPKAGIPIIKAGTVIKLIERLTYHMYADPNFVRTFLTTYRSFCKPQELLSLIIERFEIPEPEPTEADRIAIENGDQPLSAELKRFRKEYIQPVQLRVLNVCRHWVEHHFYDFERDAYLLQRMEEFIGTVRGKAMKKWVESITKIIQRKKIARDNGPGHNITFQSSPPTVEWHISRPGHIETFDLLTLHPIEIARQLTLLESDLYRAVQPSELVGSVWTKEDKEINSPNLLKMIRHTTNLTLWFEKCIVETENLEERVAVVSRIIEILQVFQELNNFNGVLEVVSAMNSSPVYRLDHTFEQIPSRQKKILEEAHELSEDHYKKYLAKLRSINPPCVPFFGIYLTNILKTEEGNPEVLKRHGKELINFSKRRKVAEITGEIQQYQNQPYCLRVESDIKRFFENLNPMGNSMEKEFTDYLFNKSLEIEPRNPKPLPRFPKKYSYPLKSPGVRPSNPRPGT

| Structure (SMILES) | IC50 [nM] |
| --- | --- |
| CCCCC(C)(O)C(F)(F)c1cccc([C@@H](C)Nc2nc(C)nc3cnc(P(C)(C)=O)cc23)c1F (mixture of isomers) [Example 23, (2RS)-1-{3-[(1R)-1-{[6-(dimethylphosphoryl)-2-methylpyrido[3,4-d]pyrimidin-4-yl]amino}ethyl]-2-fluorophenyl}-1,1-difluoro-2-methylhexan-2-ol] | 12.4 |
| CCc1nc(P(C)(C)=O)cc2c(N[C@H](C)c3cccc(C(F)(F)C(O)CC)c3F)nc(C)nc12 (mixture of isomers) [Example 38, (2RS)-1-{3-[(1R)-1-{[6-(dimethylphosphoryl)-8-ethyl-2-methylpyrido[3,4-d]pyrimidin-4-yl]amino}ethyl]-2-fluorophenyl}-1,1-difluorobutan-2-ol] | 10.7 |
| Cc1nc(NC(C)c2ccnc(C(F)(F)F)c2)c2cc(P(C)(C)=O)ncc2n1 (single isomer, unassigned) [Example 24, 6-(dimethylphosphoryl)-2-methyl-N-{1-[2-(trifluoromethyl)pyridin-4-yl]ethyl}pyrido[3,4-d]pyrimidin-4-amine] | > 20000 |
| Cc1nc(NC(C)c2ccnc(C(F)(F)F)c2)c2cc(P(C)(C)=O)ncc2n1 (single isomer, unassigned) [Example 25, 6-(dimethylphosphoryl)-2-methyl-N-{1-[2-(trifluoromethyl)pyridin-4-yl]ethyl}pyrido[3,4-d]pyrimidin-4-amine] | 4850 |
| CCC(O)C(F)(F)c1cccc([C@@H](C)Nc2nc(C)nc3cnc(P(C)(C)=O)cc23)c1F (single isomer, unassigned) [Example 65, (2R*)-1-{3-[(1R)-1-{[6-(dimethylphosphoryl)-2-methylpyrido[3,4-d]pyrimidin-4-yl]amino}ethyl]-2-fluorophenyl}-1,1-difluorobutan-2-ol] | 10.5 |
| Cc1nc(N[C@H](C)c2cccc(C(F)(F)C(O)C(C)C)c2F)c2cc(P(C)(C)=O)ncc2n1 (single isomer, unassigned) [Example 66, (2R*)-1-{3-[(1R)-1-{[6-(dimethylphosphoryl)-2-methylpyrido[3,4-d]pyrimidin-4-yl]amino}ethyl]-2-fluorophenyl}-1,1-difluoro-3-methylbutan-2-ol] | 25.1 |
| CCP(C)(=O)c1cc2c(N[C@H](C)c3cccc(C(F)(F)C(C)(C)O)c3F)nc(C)nc2cn1 (single isomer, unassigned) [Example 68] | 28.2 |
| CCP(C)(=O)c1cc2c(N[C@H](C)c3cccc(C(F)(F)C(C)(C)O)c3F)nc(C)nc2cn1 (single isomer, unassigned) [Example 69] | 19.5 |
| Cc1nc(N[C@H](C)c2cccc(C(F)(F)C(C)(C)O)c2F)c2cc(P(C)(=O)C(C)C)ncc2n1 (single isomer, unassigned) [Example 71] | 35.4 |
| Cc1nc(N[C@H](C)c2cccc(C(F)(F)C(C)(C)O)c2F)c2cc(P(C)(=O)C(C)C)ncc2n1 (single isomer, unassigned) [Example 72] | 24.3 |

Continued, values first:

| IC50 [nM] | Structure (SMILES) |
| --- | --- |
| 7.85 | Cc1nc(N[C@H](C)c2cccc(C(F)(F)[C@@H](C)O)c2F)c2cc(P(C)(C)=O)ncc2n1 (relative stereo) [Example 113, (2R*)-1-{3-[(1R)-1-{[6-(dimethylphosphoryl)-2-methylpyrido[3,4-d]pyrimidin-4-yl]amino}ethyl]-2-fluorophenyl}-1,1-difluoropropan-2-ol] |
| 4.04 | Cc1nc(N[C@H](C)c2cccc(C(F)(F)[C@H](O)C(C)(C)C)c2F)c2cc(P(C)(C)=O)ncc2n1 (relative stereo) [Example 137, (2R*)-1-{3-[(1R)-1-{[6-(dimethylphosphoryl)-2-methylpyrido[3,4-d]pyrimidin-4-yl]amino}ethyl]-2-fluorophenyl}-1,1-difluoro-3,3-dimethylbutan-2-ol] |
| 11.3 | CCP(C)(=O)c1cc2c(N[C@H](C)c3cccc(C(F)(F)C(C)O)c3F)nc(C)nc2cn1 (single isomer, unassigned) [Example 73, (2R*)-1-{3-[(1R)-1-{{6-[ethyl(methyl)phosphoryl]-2-methylpyrido[3,4-d]pyrimidin-4-yl}amino)ethyl]-2-fluorophenyl}-1,1-difluoropropan-2-ol] |
| 24.6 | CCP(C)(=O)c1cc2c(N[C@H](C)c3cccc(C(F)(F)C(C)O)c3F)nc(C)nc2cn1 (single isomer, unassigned) [Example 74, (2R*)-1-{3-[(1R)-1-{{6-[ethyl(methyl)phosphoryl]-2-methylpyrido[3,4-d]pyrimidin-4-yl}amino)ethyl]-2-fluorophenyl}-1,1-difluoropropan-2-ol] |
| 15.3 | CCP(C)(=O)c1cc2c(N[C@H](C)c3cccc(C(F)(F)C(C)O)c3F)nc(C)nc2cn1 (single isomer, unassigned) [Example 75, (2R*)-1-{3-[(1R)-1-{{6-[ethyl(methyl)phosphoryl]-2-methylpyrido[3,4-d]pyrimidin-4-yl}amino)ethyl]-2-fluorophenyl}-1,1-difluoropropan-2-ol] |
| 21.3 | CCP(C)(=O)c1cc2c(N[C@H](C)c3cccc(C(F)(F)C(C)O)c3F)nc(C)nc2cn1 (single isomer, unassigned) [Example 76, (2R*)-1-{3-[(1R)-1-({6-[ethyl(methyl)phosphoryl]-2-methylpyrido[3,4-d]pyrimidin-4-yl}amino)ethyl]-2-fluorophenyl}-1,1-difluoropropan-2-ol] |
| 17.8 | CCP(C)(=O)c1cc2c(N[C@H](C)c3cccc(C(F)(F)C(C)O)c3F)nc(C)nc2cn1 (single isomer, unassigned) [Example 77, (2R*)-1-{3-[(1R)-1-{{6-[ethyl(methyl)phosphoryl]-2-methylpyrido[3,4-d]pyrimidin-4-yl}amino)ethyl]-2-fluorophenyl}-1,1-difluoropropan-2-ol] |
| 21.8 | CCP(C)(=O)c1cc2c(N[C@H](C)c3cccc(C(F)(F)C(C)O)c3F)nc(C)nc2cn1 (single isomer, unassigned) [Example 78, (2R*)-1-{3-[(1R)-1-{{6-[ethyl(methyl)phosphoryl]-2-methylpyrido[3,4-d]pyrimidin-4-yl}amino)ethyl]-2-fluorophenyl}-1,1-difluoropropan-2-ol] |
| 12.3 | Cc1nc(N[C@H](C)c2cccc(C(F)(F)C(C)O)c2F)c2cc(P(C)(=O)C(C)C)ncc2n1 (single isomer, unassigned) [Example 79, (2R*)-1,1-difluoro-1-{2-fluoro-3-[(1R)-1-({2-methyl-6-[methyl(propan-2-yl)phosphoryl]pyrido[3,4-d]pyrimidin-4-yl}amino)ethyl]phenyl}propan-2-ol] |
| 5.88 | Cc1nc(N[C@H](C)c2cccc(C(F)(F)C(C)O)c2F)c2cc(P(C)(=O)C(C)C)ncc2n1 (single isomer, unassigned) [Example 80, (2R*)-1,1-difluoro-1-{2-fluoro-3-[(1R)-1-({2-methyl-6-[methyl(propan-2-yl)phosphoryl]pyrido[3,4-d]pyrimidin-4-yl}amino)ethyl]phenyl}propan-2-ol] |
| 10.2 | Cc1nc(N[C@H](C)c2cccc(C(F)(F)C(C)O)c2F)c2cc(P(C)(=O)C(C)C)ncc2n1 (single isomer, unassigned) [Example 81, (2R*)-1,1-difluoro-1-{2-fluoro-3-[(1R)-1-({2-methyl-6-[methyl(propan-2-yl)phosphoryl]pyrido[3,4-d]pyrimidin-4-yl}amino)ethyl]phenyl}propan-2-ol] |
